Literature values, collected in patent US20240189327A1, “SYNERGISTIC CANNABINOID ESTERS, THEIR SALTS AND USES THEREOF” (LONDON PHARMACEUTICALS AND RESEARCH CORPORATION, priority 2021, published 2024).

Legend:
[1] = in vivo
intraocular pressure = settings: normotensive rabbit
[2] = pH 7.4

For `N[C@H]1C(O)O[C@H](CO)[C@@H](O)[C@@H]1O` (stereo partly shown) [glucosamine], the “time to maximum plasma level” value [1] is given as 50 min.

In the case of `CCCCC/C=C\C/C=C\C/C=C\C/C=C\CCCC(=O)NCCOP(=O)(O)O` [phosphate ester pro-drug of anandamide], the “effect on intraocular pressure” value (intraocular pressure) is given as “reduced the intraocular pressure” and the “increase of aqueous solubility over the parent endocannabinoids” value [2] is given as > 16 500 fold.

In the case of `C=C(C)[C@@H]1CCC(C)=C[C@H]1c1c(O)cc(CCCCC)cc1O` [CBD, cannabidiol], the “time to maximum plasma level” value [1] is listed as 240 to 360 min.
